In the supplement of paper PMC3493320 one finds IC50 data, which are given here for 86 compounds.

Structures are written as SMILES.

This assay concerns NCI-H295R. In words: IC50 (antiproliferative, ATP content). As to conditions: 48 h. The procedure, abridged:
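Cell viability of adrenocortical carcinoma cells was assessed as ATP by CellTiter-Glo luminescence. Cells at 1500 per well in 1536-well plates, in serum-free DMEM with ITS, received compounds by pin transfer at 8 final concentrations (0.6 nM–46 µM) after overnight culture and were then held 48 h at 37 °C, 5% CO2. IC50 was calculated by logistic fitting against vehicle and positive-control wells, compounds with no concentration response being recorded as above the top dose.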
In turn, `Cc1ccnc(NS(=O)(=O)c2ccc(N)cc2)n1` registered a half-maximal inhibitory concentration (IC50) of more than 46 µM.
The result for `CCCCC[C@H](O)/C=C/[C@@H]1[C@@H](C/C=C\CCCC(=O)O)[C@@H](O)C[C@H]1O.COC(N)(CO)CO` reads more than 46 µM; that for `O=C(O)c1cccnc1Nc1cccc(C(F)(F)F)c1`, more than 46 µM; that for `FC(F)(F)c1ccccc1-n1ccnc1`, more than 46 µM.
The result for `COc1ccc(-c2cc(=S)ss2)cc1` reads more than 46 µM.
In turn, `c1ccc2c(c1)Nc1ccccc1S2` displayed an IC50 of more than 46 µM.
The result for `CCCOC(C(=O)OC1CCN(C)CC1)(c1ccccc1)c1ccccc1.Cl` reads more than 46 µM; that for `Nc1ncnc(Nc2ccccc2)n1`, more than 46 µM.
The compound `CC(=O)Oc1cc(C(C)C)c(OCCN(C)C)cc1C.Cl` showed an IC50 of more than 46 µM.
The compound `C=C1C[C@H]2[C@@H]3C=C(C)C4=CC(=O)CC[C@]4(C)[C@H]3CC[C@]2(C)[C@@]1(OC(C)=O)C(C)=O` yielded an IC50 of more than 46 µM.
Regarding `COc1ccc2cc3[n+](cc2c1OC)CCc1cc2c(cc1-3)OCO2.[Cl-]`, the IC50 is more than 46 µM.
In the case of `O=C1C=CC([C@](N)2CC(C)=C3)=C(C[C@H]3/[C@]2=C\C)N1`, the IC50 is more than 46 µM.
As for `CC[C@H]1OC(=O)[C@H](C)[C@@H](O[C@H]2C[C@@](C)(OC)[C@@H](O)[C@H](C)O2)[C@H](C)[C@@H](O[C@@H]2O[C@H](C)C[C@H](N(C)C)[C@H]2O)[C@](C)(O)C[C@@H](C)C(=NOCOCCOC)[C@H](C)[C@@H](O)[C@]1(C)O`, the IC50 is more than 46 µM.
The result for `Cn1c([N+](=O)[O-])cnc1COC(N)=O` reads more than 46 µM; that for `OCCO[C@@H]1[C@@H](O)[C@H](O)[C@@H](CO)O[C@@H]1O`, more than 46 µM; that for `Cc1nc2ccccn2c(=O)c1CCN1CCC(C(=O)c2ccc(F)cc2)CC1`, more than 46 µM.
For `CNC(=C[N+](=O)[O-])NCCSCc1csc(CN(C)C)n1`, the IC50 was more than 46 µM.
`COc1ccccc1O` came in with a concentration for half-maximal inhibition (IC50) of more than 46 µM.
In turn, `COc1ccccc1OC(=O)Oc1ccccc1OC` came in with an IC50 of more than 46 µM.
Then `O=C(NC(O)C(Cl)(Cl)Cl)NC(O)C(Cl)(Cl)Cl` (stereo unspecified), with more than 46 µM; and `CCc1ccc(CCOc2ccc(CC3SC(=O)NC3=O)cc2)nc1.Cl` (stereo unspecified), with more than 46 µM.
In the case of `CC1(C)C(C=C(Cl)Cl)C1C(=O)OCc1cccc(Oc2ccccc2)c1` (stereo unspecified), the half-maximal inhibitory concentration (IC50) was more than 46 µM.
The result for `NCCCC[C@H](N[C@@H](CCc1ccccc1)C(=O)O)C(=O)N1CCC[C@H]1C(=O)O.O.O` reads more than 46 µM.
Then `CCCC1CCCCN1` (stereo unspecified), with more than 46 µM; and `CC(Cc1ccccc1)NC=O` (stereo unspecified), with more than 46 µM.
In turn, `O=C(Oc1ccccc1C(=O)O)c1ccccc1O` showed a half-maximal inhibitory concentration (IC50) of more than 46 µM.
For `O=C(NNCS(=O)(=O)[O-])c1ccncc1.[Na+]`, the IC50 was more than 46 µM.
Compound `N#Cc1ccc(C(c2ccc(C#N)cc2)n2cncn2)cc1` registered an IC50 of more than 46 µM.
The result for `CCN1CC(CCN2CCOCC2)C(c2ccccc2)(c2ccccc2)C1=O.Cl` (stereo unspecified) reads more than 46 µM.
For the compound `CC(N)C12CC3CC(CC(C3)C1)C2.Cl` (stereo unspecified), the half-inhibitory concentration (IC50) is more than 46 µM.
Regarding `CN[C@@H]1[C@@H](O)[C@@H](O[C@@H]2[C@@H](O)[C@H](OC3OC(CN)=CCC3N)[C@@H](N)C[C@H]2N)OC[C@]1(C)O.CN[C@@H]1[C@@H](O)[C@@H](O[C@@H]2[C@@H](O)[C@H](OC3OC(CN)=CCC3N)[C@@H](N)C[C@H]2N)OC[C@]1(C)O.O=S(=O)(O)O.O=S(=O)(O)O.O=S(=O)(O)O.O=S(=O)(O)O.O=S(=O)(O)O` (stereo partly specified), the IC50 was more than 46 µM.
`O=[C@](O)[C@H](CC1)NC1=O`: the IC50 was more than 46 µM.
The result for `O=C(CCBr)N1CCN(C(=O)CCBr)CC1` reads more than 46 µM; that for `CC1(C)CCC(C)(C)c2cc(NC(=O)c3ccc(C(=O)O)cc3)ccc21`, more than 46 µM; that for `Cc1cccc(Nc2ccncc2S(=O)(=O)NC(=O)NC(C)C)c1`, more than 46 µM.
Then `Cl.NCCCC(N)(C(=O)O)C(F)F` (stereo unspecified), with more than 46 µM; and `CC(=O)Nc1cc([As](=O)(O)O)ccc1O`, with more than 46 µM; and `OCC=Cc1ccccc1`, with more than 46 µM.
Then `CCCCC/C=C\C/C=C\CCCCCCCC(=O)OCC`, with more than 46 µM; and `OC1OC[C@@H](O)[C@H](O)[C@@H]1O` (stereo partly specified), with more than 46 µM.
In the case of `CC(=O)OCC1=C(C(=O)O)N2C(=O)[C@@H](NC(=O)Cc3cccs3)[C@H]2SC1`, the IC50 is more than 46 µM.
The result for `CN(C)CCCSc1ccccc1NC(=O)/C=C/c1ccccc1` reads more than 46 µM; that for `C[S+](C)CCC(N)C(=O)O.[Cl-]` (stereo unspecified), more than 46 µM.
Compound `O=[N+]([O-])O[C@H]1CO[C@H]2[C@@H]1OC[C@H]2O[N+](=O)[O-]` showed a 50% inhibitory concentration (IC50) of more than 46 µM.
The result for `O=P(O)(O)O` reads more than 46 µM; that for `CCCC(=O)Nc1ncnc2c1ncn2[C@@H]1O[C@@H]2COP(=O)(O)O[C@H]2[C@H]1OC(=O)CCC`, more than 46 µM; that for `Clc1ccc(C2(Cn3cncn3)OCCO2)c(Cl)c1`, more than 46 µM.
In turn, `C=CCN=C=S` yielded a half-maximal inhibitory concentration (IC50) of more than 46 µM.
Take `NC(=O)c1cccnc1`: the half-inhibitory concentration (IC50) is more than 46 µM.
With `CC(N/C(=N\C#N)Nc1ccncc1)C(C)(C)C.O` (stereo unspecified), the IC50 is more than 46 µM.
The result for `CC(C)OC(=O)C(C)(C)Oc1ccc(C(=O)c2ccc(Cl)cc2)cc1` reads more than 46 µM; that for `CCOP(=O)(OCC)OC(=CCl)c1ccc(Cl)cc1Cl`, more than 46 µM.
In turn, `Nc1ccncc1N` registered a half-inhibitory concentration (IC50) of more than 46 µM.
Then `COc1c(O)cc2c(c1O)[C@@H]1O[C@H](CO)[C@@H](O)[C@H](O)[C@H]1OC2=O.O`, with more than 46 µM; and `Cl.O=c1n(CCCN2CCN(c3cccc(Cl)c3)CC2)nc2ccccn12`, with more than 46 µM.
Then `CN1CCC(O)(c2ccc(F)cc2)C(C(=O)c2ccc(F)cc2)C1` (stereo unspecified), with more than 46 µM; and `CC(=O)Oc1cccc(C(=O)O)c1OC(C)=O`, with more than 46 µM.
Take `CC(=O)OCC(=O)[C@@]53/N=C(/C)O[C@@H]5C[C@H]2[C@@H]4CC\C1=C\C(=O)\C=C/[C@]1(C)[C@H]4[C@@H](O)C[C@@]23C`: the half-maximal inhibitory concentration (IC50) is more than 46 µM.
Then `CC(=O)CCC(=O)[O-].CC(=O)CCC(=O)[O-].O.O.[Ca+2]`, with more than 46 µM.
`C[C@]12CCC(=O)C=C1CC[C@H]1[C@@H]3CC[C@](O)(C(=O)CO)[C@@]3(C)C[C@H](O)[C@@]12F` yielded an IC50 of more than 46 µM.
`CCN(CC)CCNC(=O)COc1ccc(Cl)cc1` came in with an IC50 of more than 46 µM.
As for `CCCCCCCCOC(=O)c1ccccc1C(=O)OCCCCCCCC`, the IC50 is more than 46 µM.
Then `O=C(N[C@H](CO)[C@H](O)c1ccc([N+](=O)[O-])cc1)C(Cl)Cl`, with more than 46 µM; and `C[C@H](N)[C@H](O)c1ccc(O)c(O)c1`, with more than 46 µM.
In the case of `O=C1CC[C@@]2(O)[C@H]3Cc4ccc(O)c5c4[C@@]2(CCN3CC2CC2)[C@H]1O5`, the IC50 was more than 46 µM.
Take `CCc1ccc(C(=O)C(C)CN2CCCCC2)cc1.Cl` (stereo unspecified): the IC50 is more than 46 µM.
Then `[H][C@]1(CC3)[C@]([H])4[C@]([C@@H]([C@@](C)=O)CC4)(C)CC[C@@]([H])1[C@]2(C)[C@]3([H])C[C@H](O)CC2`, with more than 46 µM.
Then `Nc1ccccc1C(=O)O`, with more than 46 µM.
The result for `O=[N+]([O-])c1ccc([As](=O)(O)O)cc1` reads more than 46 µM; that for `O=C(O)[C@@H](S)[C@H](S)C(=O)O`, more than 46 µM.
With `CCOC(=O)[C@H](CCc1ccccc1)N[C@@H](C)C(=O)N1CCC[C@H]1C(=O)O`, the IC50 is more than 46 µM.
On to `O=C3N1/C(=C(\CS[C@@H]1[C@@H]3NC(=O)Cc2ccccc2CN)CSc4nnnn4CC(O)=O)C(O)=O`, for which the IC50 was more than 46 µM.
The result for `CCCCNc1ccc(C(=O)OCCOCCOCCOCCOCCOCCOCCOCCOCCOC)cc1` reads more than 46 µM; that for `COc1ccc2cc1Oc1cc3c(cc1OC)CC[N+](C)(C)[C@H]3Cc1ccc(cc1)Oc1c(OC)c(OC)cc3c1[C@@H](C2)[N+](C)(C)CC3.[I-].[I-]`, more than 46 µM.
`CCCN1CCC[C@@H]2Cc3nc(N)ncc3C[C@H]21` came in with a half-maximal inhibitory concentration (IC50) of more than 46 µM.
With `CC1CCc2c(N3CCC(O)CC3)c(F)cc3c(=O)c(C(=O)O)cn1c23` (stereo unspecified), the concentration for half-maximal inhibition (IC50) is more than 46 µM.
Then `NS(=O)(=O)c1cc2c(cc1Cl)NC(CC1CCCC1)NS2(=O)=O` (stereo unspecified), with more than 46 µM.
Then `CC[C@]12CCCN3CCc4c(n(c5ccccc45)[C@@](O)(C(=O)OC)C1)[C@@H]32`, with more than 46 µM; and `O=C(N[C@@H](CO)C(N[C@H](C(N[C@H](COC(C)(C)C)C(N[C@@H](CC(C)C)C(N[C@@H](CCCNC(N)=N)C(N6[C@H]([C@@](NNC(N)=O)=O)CCC6)=O)=O)=O)=O)CC4=CC=C(O)C=C4)=O)[C@@H](NC([C@@H](N[C@@]([C@@H](N5)CCC5=O)=O)CC3=CNC=N3)=O)CC1=CNC2=C1C=CC=C2.O=C(C)O`, with more than 46 µM; and `O=[C@](NC5=CC(C(F)(F)F)=CC=C5C(F)(F)F)[C@@H]4[C@@]3(C)CC[C@]2([H])[C@@]1(C)C=CC(N[C@@]([H])1CC[C@]([H])2[C@@]([H])3CC4)=O`, with more than 46 µM.
Consider `CC(=O)N[C@@H](CCC(=O)O)C(=O)O`, for which the IC50 is more than 46 µM.
Then `[C@@]2\1(\C(=C/C(/C=C/1)=O)[C@H](C[C@@H]4[C@@H]2[C@H](C[C@@]3([C@](C(COC(=O)C)=O)(O)CC[C@H]34)C)O)C)C`, with more than 46 µM; and `O=C1NCN(c2ccccc2)C12CCN(CC1COc3ccccc3O1)CC2` (stereo unspecified), with more than 46 µM; and `CCOC(=O)c1c(N)sc2c1CCN(Cc1ccccc1)C2.Cl`, with more than 46 µM.
The result for `CCn1ccnc1CC1COc2ccccc2O1` (stereo unspecified) reads more than 46 µM; that for `COC1CC(=C(c2cccs2)c2cccs2)C[N+](C)(C)C1.[Br-]` (stereo unspecified), more than 46 µM.

As usually defined, the IC50 is the concentration needed to halve the response being measured. Read a low IC50 as inhibition by little substance.
